# Test results published in ChEMBL document CHEMBL3393004, “Insights on the role of boron containing moieties in the design of new potent and efficient agonists targeting the β2 adrenoceptor” (Bioorg Med Chem Lett, 2015).
# pEC50, pKd: −log10 of the molar value.
# Key:
# [1] = molecular target: Beta-2 adrenergic receptor (Cavia porcellus) (UniProt Q8K4Z4); test: Agonist activity at adrenergic beta2 receptor in Hartley guinea pig tracheal ring assessed as bronchorelaxation activity against histamine-induced contraction relative to isoproterenol; details: Trachea
# Sequence of Beta-2 adrenergic receptor (Cavia porcellus) (Q8K4Z4 whole entry, looked up): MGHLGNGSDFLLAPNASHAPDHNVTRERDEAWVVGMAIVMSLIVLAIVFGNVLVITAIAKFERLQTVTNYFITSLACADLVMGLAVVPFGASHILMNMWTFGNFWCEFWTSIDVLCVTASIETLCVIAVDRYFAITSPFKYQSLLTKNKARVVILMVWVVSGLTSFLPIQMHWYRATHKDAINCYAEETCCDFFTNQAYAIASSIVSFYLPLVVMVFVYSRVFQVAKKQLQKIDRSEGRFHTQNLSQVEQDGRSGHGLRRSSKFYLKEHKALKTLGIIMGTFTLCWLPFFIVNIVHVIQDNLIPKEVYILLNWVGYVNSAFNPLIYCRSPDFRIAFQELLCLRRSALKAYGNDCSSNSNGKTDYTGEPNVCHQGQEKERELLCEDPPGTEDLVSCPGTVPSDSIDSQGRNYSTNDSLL
# [2] = molecular target: T1, Beta-2 adrenergic receptor (Cavia porcellus, UniProt Q8K4Z4); test: Agonist activity at adrenergic beta2 receptor in Hartley guinea pig tracheal ring assessed as bronchorelaxation activity against histamine-induced contraction; design: species or system Trachea
# T1 sequence (Q8K4Z4 whole entry): as the sequence (Q8K4Z4 whole entry, looked up) above
# [3] = molecular target: T1, Beta-2 adrenergic receptor; test: Agonist activity at adrenergic beta2 receptor in Hartley guinea pig tracheal ring at basal tone assessed as bronchorelaxation activity
SMILES,Efficacy [1] [%],pKd [2],pKd [3],pEC50 [2]
CC(C)(C)NCC(O)c1ccc(O)c(CO)c1 (configuration not stated),68,,,
CC(C)NCC(O)c1ccc(O)c(O)c1 (configuration not stated) [ISOPROTERENOL],,7.75,7.60,
CC(C)C[B-]1(O)OCc2cc([C@@H](O)C[NH2+]C(C)(C)C)ccc2O1 (some centres not stated),94,7.55,8.29,≥ 6.55
